Measurements taken from ChEMBL document CHEMBL1909046, “DrugMatrix in vitro pharmacology data”.

What was measured:
[1] = biological target: T1, Alpha-1D adrenergic receptor (Homo sapiens, UniProt P25100); format: cell membranes, HEK293, Membrane; settings: hek293
T1 sequence (P25100 whole entry): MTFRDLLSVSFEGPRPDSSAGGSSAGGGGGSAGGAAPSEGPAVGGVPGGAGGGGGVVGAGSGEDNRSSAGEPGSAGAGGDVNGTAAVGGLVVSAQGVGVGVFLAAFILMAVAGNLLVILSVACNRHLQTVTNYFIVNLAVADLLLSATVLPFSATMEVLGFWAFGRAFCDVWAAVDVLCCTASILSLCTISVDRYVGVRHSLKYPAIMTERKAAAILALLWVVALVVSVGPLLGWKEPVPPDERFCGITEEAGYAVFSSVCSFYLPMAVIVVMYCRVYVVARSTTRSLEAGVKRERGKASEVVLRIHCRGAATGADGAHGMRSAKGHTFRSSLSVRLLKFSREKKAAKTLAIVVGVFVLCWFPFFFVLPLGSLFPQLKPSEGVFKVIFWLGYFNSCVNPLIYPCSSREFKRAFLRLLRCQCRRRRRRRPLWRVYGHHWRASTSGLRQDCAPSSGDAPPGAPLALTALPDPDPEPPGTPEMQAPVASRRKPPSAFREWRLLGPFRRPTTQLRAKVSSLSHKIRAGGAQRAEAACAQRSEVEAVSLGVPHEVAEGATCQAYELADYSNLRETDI

[2] = biological target: T2, Alpha-2A adrenergic receptor (Homo sapiens, UniProt P08913); format: cell membranes, Sf9, Membrane; settings: sf9
T2 sequence (P08913 whole entry): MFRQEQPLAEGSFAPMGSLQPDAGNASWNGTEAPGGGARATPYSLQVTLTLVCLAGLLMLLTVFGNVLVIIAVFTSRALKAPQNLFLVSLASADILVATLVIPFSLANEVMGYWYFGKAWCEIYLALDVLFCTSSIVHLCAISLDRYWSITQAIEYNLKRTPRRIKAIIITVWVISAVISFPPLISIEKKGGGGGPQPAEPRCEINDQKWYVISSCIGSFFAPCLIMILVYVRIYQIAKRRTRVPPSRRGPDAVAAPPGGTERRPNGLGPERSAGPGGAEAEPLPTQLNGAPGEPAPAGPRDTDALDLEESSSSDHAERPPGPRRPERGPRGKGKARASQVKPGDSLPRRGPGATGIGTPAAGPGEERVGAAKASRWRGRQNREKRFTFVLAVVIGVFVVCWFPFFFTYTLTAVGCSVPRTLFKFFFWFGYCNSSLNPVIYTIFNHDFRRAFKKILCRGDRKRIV

[3] = biological target: Receptor tyrosine-protein kinase erbB-2 (Homo sapiens, UniProt P04626); assay: biochemical; format: cell-based, Insect cells; settings: insect cells;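 note: inhibition of HER2 kinase enzyme activity, measured with Poly(Glu:Tyr) as the phosphorylation substrate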
Sequence of Receptor tyrosine-protein kinase erbB-2 (P04626 whole entry): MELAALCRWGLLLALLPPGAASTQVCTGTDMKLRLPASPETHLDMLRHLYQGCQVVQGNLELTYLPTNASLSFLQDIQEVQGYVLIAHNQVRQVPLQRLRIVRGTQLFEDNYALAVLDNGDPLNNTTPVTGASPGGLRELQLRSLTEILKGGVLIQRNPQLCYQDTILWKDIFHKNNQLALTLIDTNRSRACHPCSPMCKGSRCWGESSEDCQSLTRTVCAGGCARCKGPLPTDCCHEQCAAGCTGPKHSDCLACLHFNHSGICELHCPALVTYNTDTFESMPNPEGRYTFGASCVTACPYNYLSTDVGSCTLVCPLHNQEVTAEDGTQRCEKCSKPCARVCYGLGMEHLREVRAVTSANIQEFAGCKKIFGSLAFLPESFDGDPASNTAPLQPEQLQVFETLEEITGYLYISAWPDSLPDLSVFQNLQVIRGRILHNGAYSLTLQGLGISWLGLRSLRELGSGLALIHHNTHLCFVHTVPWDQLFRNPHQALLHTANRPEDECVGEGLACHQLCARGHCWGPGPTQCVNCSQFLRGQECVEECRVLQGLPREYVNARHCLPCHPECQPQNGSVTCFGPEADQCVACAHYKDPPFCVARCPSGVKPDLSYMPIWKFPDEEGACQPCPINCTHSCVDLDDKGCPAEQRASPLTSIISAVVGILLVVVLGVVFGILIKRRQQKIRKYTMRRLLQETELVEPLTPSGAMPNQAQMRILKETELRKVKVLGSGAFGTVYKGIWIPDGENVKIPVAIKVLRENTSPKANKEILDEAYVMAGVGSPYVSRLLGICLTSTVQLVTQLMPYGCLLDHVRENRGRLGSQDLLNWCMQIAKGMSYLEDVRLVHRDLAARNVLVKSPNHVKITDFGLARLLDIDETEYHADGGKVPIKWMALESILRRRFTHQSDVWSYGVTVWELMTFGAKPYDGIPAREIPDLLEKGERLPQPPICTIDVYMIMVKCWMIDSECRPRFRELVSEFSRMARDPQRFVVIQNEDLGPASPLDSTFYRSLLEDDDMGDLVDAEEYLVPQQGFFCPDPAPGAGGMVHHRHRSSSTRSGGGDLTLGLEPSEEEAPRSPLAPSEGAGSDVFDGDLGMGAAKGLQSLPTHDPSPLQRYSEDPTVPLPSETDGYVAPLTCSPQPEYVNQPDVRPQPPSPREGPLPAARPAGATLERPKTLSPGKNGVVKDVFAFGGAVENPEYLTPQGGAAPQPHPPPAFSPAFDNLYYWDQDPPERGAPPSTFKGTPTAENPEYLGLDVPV

[4] = biological target: T3, Androgen receptor (Rattus norvegicus, UniProt P15207)
T3 sequence (P15207 whole entry): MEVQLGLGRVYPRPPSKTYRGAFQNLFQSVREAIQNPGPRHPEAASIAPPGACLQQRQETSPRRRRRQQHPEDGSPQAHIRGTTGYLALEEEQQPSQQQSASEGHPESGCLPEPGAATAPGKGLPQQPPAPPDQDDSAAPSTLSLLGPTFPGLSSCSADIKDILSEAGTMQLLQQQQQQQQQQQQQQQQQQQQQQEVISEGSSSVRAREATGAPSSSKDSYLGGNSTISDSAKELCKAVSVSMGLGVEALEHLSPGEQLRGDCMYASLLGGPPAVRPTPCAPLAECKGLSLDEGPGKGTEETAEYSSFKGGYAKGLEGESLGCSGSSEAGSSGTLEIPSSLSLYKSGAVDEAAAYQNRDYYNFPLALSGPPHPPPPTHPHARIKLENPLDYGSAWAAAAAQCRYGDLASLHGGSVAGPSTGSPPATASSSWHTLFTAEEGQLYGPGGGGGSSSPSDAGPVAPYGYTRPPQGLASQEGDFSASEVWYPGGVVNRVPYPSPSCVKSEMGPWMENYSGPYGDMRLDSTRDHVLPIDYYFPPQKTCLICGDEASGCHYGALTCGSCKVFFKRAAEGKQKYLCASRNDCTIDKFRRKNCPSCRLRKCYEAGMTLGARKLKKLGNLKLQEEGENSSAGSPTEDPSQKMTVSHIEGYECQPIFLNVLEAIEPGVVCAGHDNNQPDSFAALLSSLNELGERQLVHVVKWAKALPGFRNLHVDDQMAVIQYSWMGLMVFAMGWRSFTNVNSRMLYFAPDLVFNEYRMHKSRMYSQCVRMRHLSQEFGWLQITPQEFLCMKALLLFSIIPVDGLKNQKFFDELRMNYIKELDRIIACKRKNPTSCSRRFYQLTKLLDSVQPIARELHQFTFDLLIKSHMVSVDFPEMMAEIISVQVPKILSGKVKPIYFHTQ

[5] = biological target: Cytochrome P450 2D6 (Homo sapiens, UniProt P10635); settings: bti-tn-5b1-4
Sequence of Cytochrome P450 2D6 (P10635 whole entry): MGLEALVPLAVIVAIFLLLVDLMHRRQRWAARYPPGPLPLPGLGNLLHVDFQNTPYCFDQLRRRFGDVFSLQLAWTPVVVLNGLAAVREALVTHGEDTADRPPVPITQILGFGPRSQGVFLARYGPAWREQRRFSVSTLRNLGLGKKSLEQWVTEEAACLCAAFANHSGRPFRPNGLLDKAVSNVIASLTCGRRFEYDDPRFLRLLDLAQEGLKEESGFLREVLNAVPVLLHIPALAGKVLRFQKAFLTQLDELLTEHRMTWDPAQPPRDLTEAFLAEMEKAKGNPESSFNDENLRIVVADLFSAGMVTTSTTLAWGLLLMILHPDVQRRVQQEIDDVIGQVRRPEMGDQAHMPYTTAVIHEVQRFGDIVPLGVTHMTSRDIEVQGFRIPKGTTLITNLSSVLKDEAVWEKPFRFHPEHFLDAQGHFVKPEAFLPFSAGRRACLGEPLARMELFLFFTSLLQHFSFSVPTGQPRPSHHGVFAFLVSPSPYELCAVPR
Note: in other assays of this panel Not Active means under 50% inhibition at 10 µM.

COC1=C(OC)C(=O)C(CCCCCCCCCCO)=C(C)C1=O [IDEBENONE]
Not Active: IC50 [1] | IC50 [2] | IC50 [3] | IC50 [4]

CC(C)NNC(=O)c1ccncc1 [IPRONIAZID]
Not Active: IC50 [1] | IC50 [2] | IC50 [3] | IC50 [4] | IC50 [5] | Ki [5]

O=c1cc(N2CCOCC2)oc2c(-c3ccccc3)cccc12 [LY-294002]
Not Active: IC50 [1] | IC50 [2] | IC50 [3] | IC50 [4] | IC50 [5] | Ki [5]

COc1ccc2[nH]cc(CCNC(C)=O)c2c1 [MELATONIN]
Not Active: IC50 [1] | IC50 [2] | IC50 [3] | IC50 [5] | Ki [5]

NC(=O)C[S+]([O-])C(c1ccccc1)c1ccccc1 (centres undefined) [MODAFINIL]
Not Active: IC50 [1] | IC50 [2] | IC50 [3] | IC50 [5] | Ki [5]

O=C(O)c1cccnc1Nc1cccc(C(F)(F)F)c1 [NIFLUMIC ACID]
Not Active: IC50 [1] | IC50 [2] | IC50 [3] | IC50 [5] | Ki [5]

O=C(N/N=C/c1ccc([N+](=O)[O-])o1)c1cc([N+](=O)[O-])cc([N+](=O)[O-])c1O [NIFURSOL]
Not Active: IC50 [1] | IC50 [2] | IC50 [3] | IC50 [5] | Ki [5]

COC(=O)Nc1nc2ccc(C(=O)c3cccs3)cc2[nH]1 [NOCODAZOLE]
Not Active: IC50 [1] | IC50 [2] | IC50 [3] | IC50 [5] | Ki [5]

COC(=O)Nc1nc2ccc([S+]([O-])c3ccccc3)cc2[nH]1 (centres undefined) [OXFENDAZOLE]
Not Active: IC50 [1] | IC50 [2] | IC50 [3] | IC50 [5] | Ki [5]

CC(C)NCC(O)COc1cccc2[nH]ccc12 (centres undefined) [PINDOLOL]
Not Active: IC50 [1] | IC50 [2] | IC50 [3] | IC50 [4]

CCn1cc(C(=O)O)c(=O)c2cnc(N3CCCC3)nc21 [PIROMIDIC ACID]
Not Active: IC50 [1] | IC50 [2] | IC50 [3] | IC50 [5] | Ki [5]

C[n+]1ccccc1/C=N/O.[Cl-] [PRALIDOXIME CHLORIDE]
Not Active: IC50 [1] | IC50 [2] | IC50 [3] | IC50 [5] | Ki [5]

C[C@]12C=CC(=O)C=C1CC[C@@H]1[C@@H]2[C@@H](O)C[C@@]2(C)[C@H]1CC[C@]2(O)C(=O)CO [PREDNISOLONE]
Not Active: IC50 [1] | IC50 [2] | IC50 [3] | IC50 [5] | Ki [5]

CCCOc1ccc(C(=O)OCCN(CC)CC)cc1N [PROPARACAINE]
Not Active: IC50 [1] | IC50 [2] | IC50 [3] | IC50 [5] | Ki [5]

CC(C)c1cccc(C(C)C)c1O [PROPOFOL]
Not Active: IC50 [1] | IC50 [2] | IC50 [3] | IC50 [4]

Oc1cccc(O)c1O [PYROGALLOL]
Not Active: IC50 [1] | IC50 [2] | IC50 [3] | IC50 [5] | Ki [5]
